Here are results for 26 compounds from US20210163443A1, “Febrifugine Derivatives” (BRISTOL-MYERS SQUIBB COMPANY, priority 2019, published 2021).

Where a name gives a salt, the structure may show the parent alone.

This assay has as its target T1, human ProRS (prolyl tRNA synthetase moiety of glutamyl prolyl tRNA synthetase, EPRS) (Homo sapiens, UniProt P07814).
T1 construct: The prolyl tRNA synthetase moiety (ProRS) in the cDNA of glutamyl prolyl tRNA synthetase was subcloned; 6xHis (N, cleaved yes); made in house; host or cells: E. coli BL21 (DE3)
T1 sequence (P07814 1007-1512 limits assumed): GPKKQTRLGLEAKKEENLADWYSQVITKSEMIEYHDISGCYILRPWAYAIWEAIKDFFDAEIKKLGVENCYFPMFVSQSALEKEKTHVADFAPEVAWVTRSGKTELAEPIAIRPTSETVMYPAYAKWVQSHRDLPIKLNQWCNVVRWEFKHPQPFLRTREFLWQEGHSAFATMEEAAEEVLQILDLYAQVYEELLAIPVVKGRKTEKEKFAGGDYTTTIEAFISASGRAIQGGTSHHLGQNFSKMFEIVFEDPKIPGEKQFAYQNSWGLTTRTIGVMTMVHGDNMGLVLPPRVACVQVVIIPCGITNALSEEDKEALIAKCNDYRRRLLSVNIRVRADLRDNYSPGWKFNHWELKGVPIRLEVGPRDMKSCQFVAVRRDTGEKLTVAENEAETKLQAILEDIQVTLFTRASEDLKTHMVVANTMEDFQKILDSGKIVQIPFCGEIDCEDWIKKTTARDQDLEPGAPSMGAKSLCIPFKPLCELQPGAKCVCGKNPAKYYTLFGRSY
In words: Assay for inhibitors of prolyl tRNA synthetase activity (ProRS assay, labeled proline incorporation). As to conditions: human ProRS 20 nM, 10 min at 37° C.; read-out: EPRS IC50. Type of assay: biochemical. The source says:
In order to establish the activities of the compounds highlighted above, we determined extent of inhibition of prolyl tRNA synthetase activity in dose response curves to obtain IC50 values.
The prolyl tRNA synthetase moiety (ProRS) in the cDNA of glutamyl prolyl tRNA synthetase was subcloned, tagged with a single biotin, purified and used in the assay.
Briefly, human ProRS with a 6×N-terminal His tag in pET28N with TVMV BioP was transformed in E. coli BL21 (DE3) cells, selected, overexpressed and purified using a Ni Seph 6 FF XK 16/20 column in the first stage. Ni-NTA eluates were pooled and treated with TVMV protease, and biotinylated using d-Biotin, MgCl2, ATP and the BirA enzyme. This was rerun through a Ni column as before. The eluates were further enriched and purified using membrane ultrafiltration and a SuperDex 200 XK 16/60 column, and peak fractions were confirmed by SDS-PAGE prior to protein amount determination, aliquoting and storage at −80° C. • ProRS assay was performed in 96 well plates in a final reaction volume of 20 μl, using staggered additions of Tris-Cl (pH 7.5, 60 mM), dithiothreitol (2 mM), ATP (5 mM, pH 7.0), MgCl2 6 mM), ProRS (20 nM, with pre-determined active fraction range) and bovine tRNA (20 μg). Controls and compounds, at various concentrations (10 μM to 0.5 nM), were incubated on ice with enzyme mix for 15 min followed by addition of proline (non-labeled and labeled, 3.96 and 1.04 μM (1 μCi) respectively) to initiate the reaction. Reaction was carried out for 10 min at 37° C. and terminated by addition of TCA (10%, 100 μl). Reaction mix was collected on a Whatman GF/B filter using a vacuum filtration manifold. This filter was washed 3 times with 5% TCA followed by 2 washes with ethanol, air dried, and read using a liquid scintillation counter (TopCount NXT) using MicroScint O. IC50 values were calculated and analyzed using ToolSet (4-parameter plot) and depicted herein.
The term IC50 denotes the concentration that gives 50% inhibition. Regarding “3-{(S)-2-hydroxy-3-[(2R,3S)-3-hydroxypiperidin-2-yl]propyl}-8-methyl-6-(1-methyl-1H-pyrazol-3-yl)quinazolin-4(3H)-one hydrochloride [Example 71]”, the IC50 worked out at 4200 nM. Consider `Cc1cc(Cl)cc2c(=O)n(CC(=O)C[C@H]3NCCC[C@@H]3O)cnc12` [Example 1, 6-Chloro-3-{3-[(2R,3S)-3-hydroxypiperidin-2-yl]-2-oxopropyl}-8-methylquinazolin-4(3H)-one hydrochloride], for which the IC50 was 73 nM.

With `Cc1c(Cl)ccc2c(=O)n(CC(=O)C[C@H]3NCCC[C@@H]3O)cnc12` [Example 2, 7-Chloro-3-{3-[(2R,3S)-3-hydroxypiperidin-2-yl]-2-oxopropyl}-8-methylquinazolin-4(3H)-one hydrochloride], the IC50 stood at 15 nM. With `COc1ccc2c(=O)n(CC(=O)C[C@H]3NCCC[C@@H]3O)cnc2c1C` [Example 4, 3-{3-[(2R,3S)-3-Hydroxypiperidin-2-yl]-2-oxopropyl}-7-methoxy-8-methylquinazolin-4(3H)-one hydrochloride], the IC50 was found to be 49 nM. In the case of `O=C(C[C@H]1NCCC[C@@H]1O)Cn1cnc2cccc(F)c2c1=O` [Example 5, 5-Fluoro-3-{3-[(2R,3S)-3-hydroxypiperidin-2-yl]-2-oxopropyl}quinazolin-4(3H)-one hydrochloride], the IC50 was 8 nM. `CCc1cc(C)c2ncn(CC(=O)C[C@H]3NCCC[C@@H]3O)c(=O)c2c1` [Example 6, 6-Ethyl-3-(3-((2R,3S)-3-hydroxypiperidin-2-yl)-2-oxopropyl)-8-methylquinazolin-4(3H)-one hydrochloride]: the IC50 was determined as 3 nM.

As for `Cc1cc(OC(F)(F)F)cc2c(=O)n(CC(=O)C[C@H]3NCCC[C@@H]3O)cnc12` [Example 7, 3-{3-[(2R,3S)-3-Hydroxypiperidin-2-yl]-2-oxopropyl}-8-methyl-6-(trifluoromethoxy)quinazolin-4(3H)-one hydrochloride], the concentration for half-maximal inhibition (IC50) was 9 nM. For `Cc1cc(S(C)(=O)=O)cc2c(=O)n(CC(=O)C[C@H]3NCCC[C@@H]3O)cnc12` [Example 8, 3-{3-[(2R,3S)-3-Hydroxypiperidin-2-yl]-2-oxopropyl}-8-methyl-6-methylsulfonyl)quinazolin-4(3H)-one hydrochloride], the IC50 was 9 nM.

In the case of `Cc1cc(C(F)(F)F)cc2c(=O)n(CC(=O)C[C@H]3NCCC[C@@H]3O)cnc12` [Example 9, 3-{3-[(2R,3S)-3-Hydroxypiperidin-2-yl]-2-oxopropyl}-8-methyl-6-(trifluoromethyl)quinazolin-4(3H)-one hydrochloride], the IC50 turned out to be 7 nM. As to `Cc1cc(C(C)C)cc2c(=O)n(CC(=O)C[C@H]3NCCC[C@@H]3O)cnc12` [Example 10, 3-{3-[(2R,3S)-3-Hydroxypiperidin-2-yl]-2-oxopropyl}-6-isopropyl-8-methylquinazolin-4(3H)-one hydrochloride], the half-maximal inhibitory concentration (IC50) amounted to 6 nM.

As for `Cc1cc(C2CC2)cc2c(=O)n(CC(=O)C[C@H]3NCCC[C@@H]3O)cnc12` [Example 11, 6-Cyclopropyl-3-{3-[(2R,3S)-3-hydroxypiperidin-2-yl]-2-oxopropyl}-8-methylquinazolin-4(3H)-one hydrochloride], the IC50 was 6 nM. The value for `Cc1cc(C#N)cc2c(=O)n(CC(=O)C[C@H]3NCCC[C@@H]3O)cnc12` [Example 12, 3-{3-[(2R,3S)-3-Hydroxypiperidin-2-yl]-2-oxopropyl}-8-methyl-4-oxo-3,4-dihydroquinazoline-6-carbonitrile hydrochloride] was 17 nM. In the case of `CCc1cc(Br)cc2c(=O)n(CC(=O)C[C@H]3NCCC[C@@H]3O)cnc12` [Example 13, 6-Bromo-8-ethyl-3-{3-[(2R,3S)-3-hydroxypiperidin-2-yl]-2-oxopropyl}quinazolin-4(3H)-one hydrochloride], the IC50 was 6 nM. On to `CCc1cc(F)cc2c(=O)n(CC(=O)C[C@H]3NCCC[C@@H]3O)cnc12` [Example 14, 8-Ethyl-6-fluoro-3-(3-((2R,3S)-3-hydroxypiperidin-2-yl)-2-oxopropyl)quinazolin-4(3H)-one hydrochloride], for which the IC50 amounted to 38 nM. With `O=C(C[C@H]1NCCC[C@@H]1O)Cn1cnc2cccc(-c3cccc(F)c3)c2c1=O` [Example 15, 5-(3-Fluorophenyl)-3-{3-[(2R,3S)-3-hydroxypiperidin-2-yl]-2-oxopropyl}quinazolin-4(3H)-one hydrochloride], the half-inhibitory concentration (IC50) turned out to be 6 nM. Consider `O=C(C[C@H]1NCCC[C@@H]1O)Cn1cnc2ccc(-c3cccc(F)c3)cc2c1=O` [Example 16, 6-(3-Fluorophenyl)-3-{3-[(2R,3S)-3-hydroxypiperidin-2-yl]-2-oxopropyl}quinazolin-4(3H)-one hydrochloride], for which the IC50 was 10 nM. To `O=C(C[C@H]1NCCC[C@@H]1O)Cn1cnc2ccc(-c3cccc(Cl)c3)cc2c1=O` [Example 17, 6-(3-Chlorophenyl)-3-{3-[(2R,3S)-3-hydroxypiperidin-2-yl]-2-oxopropyl}quinazolin-4(3H)-one hydrochloride] belongs 28 nM. With `O=C(C[C@H]1NCCC[C@@H]1O)Cn1cnc2ccc(-c3cccc(C(F)(F)F)c3)cc2c1=O` [Example 18, 3-{3-[(2R,3S)-3-Hydroxypiperidin-2-yl]-2-oxopropyl}-6-[3-(trifluoromethyl)phenyl]quinazolin-4(3H)-one hydrochloride], the IC50 was determined as 40 nM.

Take `Cc1cc(-c2cccc(F)c2)cc2c(=O)n(CC(=O)C[C@H]3NCCC[C@@H]3O)cnc12` [Example 19, 6-(3-Fluorophenyl)-3-{3-[(2R,3S)-3-hydroxypiperidin-2-yl]-2-oxopropyl}-8-methylquinazolin-4(3H)-one hydrochloride]: the IC50 stood at 9 nM. To `Cc1cc(-c2cccc(C(F)(F)F)c2)cc2c(=O)n(CC(=O)C[C@H]3NCCC[C@@H]3O)cnc12` [Example 20, 3-{3-[(2R,3S)-3-Hydroxypiperidin-2-yl]-2-oxopropyl}-8-methyl-6-[3-(trifluoromethyl)phenyl]quinazolin-4(3H)-one hydrochloride] belongs 28 nM.

In the case of `Cc1cc(-c2cccnc2)cc2c(=O)n(CC(=O)C[C@H]3NCCC[C@@H]3O)cnc12` [Example 21, 3-{3-[(2R,3S)-3-Hydroxypiperidin-2-yl]-2-oxopropyl}-8-methyl-6-(pyridin-3-yl)quinazolin-4(3H)-one dihydrochloride], the IC50 was 8 nM. In the case of `Cc1cc(-c2ccc(F)c(F)c2)cc2c(=O)n(CC(=O)C[C@H]3NCCC[C@@H]3O)cnc12` [Example 22, 6-(3,4-Difluorophenyl)-3-{3-[(2R,3S)-3-hydroxypiperidin-2-yl]-2-oxopropyl}-8-methylquinazolin-4(3H)-one hydrochloride], the IC50 is 15 nM.

For the compound `Cc1cc(C2CCOCC2)cc2c(=O)n(CC(=O)C[C@H]3NCCC[C@@H]3O)cnc12` [Example 23, 3-{3-[(2R,3S)-3-Hydroxypiperidin-2-yl]-2-oxopropyl}-8-methyl-6-(tetrahydro-2H-pyran-4-yl)quinazolin-4(3H)-one hydrochloride], the IC50 was 12 nM.

For the compound `Cc1cc(N2CCCC2)cc2c(=O)n(CC(=O)C[C@H]3NCCC[C@@H]3O)cnc12` [Example 24, 3-{3-[(2R,3S)-3-Hydroxypiperidin-2-yl]-2-oxopropyl}-8-methyl-6-(pyrrolidin-1-yl)quinazolin-4(3H)-one dihydrochloride], the IC50 came to 14 nM. For `O=C(C[C@H]1NCCC[C@@H]1O)Cn1cnc2cccc(C(F)(F)F)c2c1=O` [Example 25, 3-{3-[(2R,3S)-3-Hydroxypiperidin-2-yl]-2-oxopropyl}-5-(trifluoromethyl)quinazolin-4(3H)-one hydrochloride], the IC50 was 10 nM. The value for `O=C(C[C@H]1NCCC[C@@H]1O)Cn1cnc2cccc(-c3cccc(C(F)(F)F)c3)c2c1=O` [Example 26, 3-{3-[(2R,3S)-3-Hydroxypiperidin-2-yl]-2-oxopropyl}-5-[3-(trifluoromethyl)phenyl]quinazolin-4(3H)-one hydrochloride] was 13 nM.
